Earlier results as cited in US9808460B2, “Controlled release auris sensory cell modulator compositions and methods for the treatment of otic disorders” (Otonomy, Inc., priority 2008, dated 2017).

Test system: ototoxic effects of cisplatin
Details: in certain instances

## NCCCNCCSP(=O)(O)O [Amifostine]
  doses needed to protect against or ameliorate the ototoxic effects of cisplatin: ≥ 40 mg/kg
